Assay results reported in the NIST ThermoML archive (doi:10.1021/je700096m).

Conditions: Liquid

CN(C)C=O [dimethylformamide]
Conditions	mass density [kg/m3]
288.15 K, 100 kPa	953.4
288.15 K, 2100 kPa	954.5
288.15 K, 4000 kPa	955.6
288.15 K, 6100 kPa	956.8
288.15 K, 7900 kPa	957.8
288.15 K, 9900 kPa	958.9
288.15 K, 12100 kPa	960.1
288.15 K, 14000 kPa	961.2
288.15 K, 16000 kPa	962.2
288.15 K, 18000 kPa	963.3
288.15 K, 19800 kPa	964.3
298.15 K, 100 kPa	943.8
298.15 K, 2000 kPa	945
298.15 K, 4100 kPa	946.2
298.15 K, 6100 kPa	947.4
298.15 K, 8100 kPa	948.6
298.15 K, 10100 kPa	949.8
298.15 K, 12100 kPa	951
298.15 K, 14100 kPa	952.1
298.15 K, 16300 kPa	953.3
298.15 K, 18300 kPa	954.3
298.15 K, 20100 kPa	955.5
308.15 K, 100 kPa	935
308.15 K, 2000 kPa	936.2
308.15 K, 4100 kPa	937.6
308.15 K, 6100 kPa	938.9
308.15 K, 8100 kPa	940
308.15 K, 10100 kPa	941.2
308.15 K, 12100 kPa	942.5
308.15 K, 14300 kPa	943.7
308.15 K, 16300 kPa	944.9
308.15 K, 18300 kPa	946
308.15 K, 20200 kPa	947
318.15 K, 100 kPa	925.5
318.15 K, 2100 kPa	926.9
318.15 K, 4000 kPa	928.3
318.15 K, 6000 kPa	929.6
318.15 K, 7900 kPa	930.8
318.15 K, 10200 kPa	932.2
318.15 K, 12000 kPa	933.4
318.15 K, 14000 kPa	934.5
318.15 K, 16000 kPa	935.8
318.15 K, 18000 kPa	937
318.15 K, 20200 kPa	938.1

CCCCCCCCCl [1-chlorooctane]
Conditions	mass density [kg/m3]
288.15 K, 100 kPa	877.3
288.15 K, 2000 kPa	878.8
288.15 K, 4000 kPa	880.2
288.15 K, 6000 kPa	881.6
288.15 K, 8000 kPa	883
288.15 K, 10000 kPa	884.4
288.15 K, 11900 kPa	885.8
288.15 K, 13900 kPa	887.1
288.15 K, 16000 kPa	888.4
288.15 K, 18000 kPa	889.7
288.15 K, 20100 kPa	891.2
298.15 K, 100 kPa	868.8
298.15 K, 2000 kPa	870.2
298.15 K, 4100 kPa	871.8
298.15 K, 6100 kPa	873.3
298.15 K, 8100 kPa	874.8
298.15 K, 10000 kPa	876.2
298.15 K, 12100 kPa	877.8
298.15 K, 14200 kPa	879.3
298.15 K, 16300 kPa	880.7
298.15 K, 18300 kPa	882.1
298.15 K, 20200 kPa	883.4
308.15 K, 100 kPa	861.4
308.15 K, 2000 kPa	862.8
308.15 K, 4000 kPa	864.4
308.15 K, 6000 kPa	865.9
308.15 K, 7900 kPa	867.5
308.15 K, 10100 kPa	869.1
308.15 K, 12000 kPa	870.5
308.15 K, 14000 kPa	872
308.15 K, 15900 kPa	873.3
308.15 K, 18000 kPa	874.8
308.15 K, 20000 kPa	876.5
318.15 K, 100 kPa	852.9
318.15 K, 2000 kPa	854.5
318.15 K, 4000 kPa	856.2
318.15 K, 6000 kPa	857.9
318.15 K, 8000 kPa	859.5
318.15 K, 10000 kPa	861.2
318.15 K, 12000 kPa	862.8
318.15 K, 14000 kPa	864.3
318.15 K, 16000 kPa	865.8
318.15 K, 18000 kPa	867.3
318.15 K, 20100 kPa	868.9

CC(=O)N(C)C [N,N-dimethylethanamide]
Conditions	mass density [kg/m3]
288.15 K, 100 kPa	945.7
288.15 K, 2000 kPa	946.7
288.15 K, 4000 kPa	947.8
288.15 K, 6000 kPa	949
288.15 K, 8100 kPa	950.1
288.15 K, 9900 kPa	951.1
288.15 K, 12000 kPa	952.2
288.15 K, 13900 kPa	953.2
288.15 K, 16000 kPa	954.3
288.15 K, 18100 kPa	955.4
288.15 K, 20000 kPa	956.5
298.15 K, 100 kPa	937
298.15 K, 2000 kPa	938.1
298.15 K, 4100 kPa	939.4
298.15 K, 6100 kPa	940.6
298.15 K, 8100 kPa	941.8
298.15 K, 10000 kPa	943
298.15 K, 12100 kPa	944.1
298.15 K, 14200 kPa	945.3
298.15 K, 16300 kPa	946.4
298.15 K, 18400 kPa	947.5
298.15 K, 20100 kPa	948.6
308.15 K, 100 kPa	927.9
308.15 K, 2000 kPa	929.1
308.15 K, 4100 kPa	930.4
308.15 K, 6100 kPa	931.6
308.15 K, 8100 kPa	932.8
308.15 K, 10100 kPa	934
308.15 K, 12100 kPa	935.3
308.15 K, 14200 kPa	936.5
308.15 K, 16300 kPa	937.6
308.15 K, 18200 kPa	938.7
308.15 K, 20200 kPa	939.9
318.15 K, 100 kPa	918.7
318.15 K, 2000 kPa	919.8
318.15 K, 4000 kPa	921.2
318.15 K, 6000 kPa	922.5
318.15 K, 8000 kPa	923.8
318.15 K, 9900 kPa	925
318.15 K, 12000 kPa	926.3
318.15 K, 14000 kPa	927.5
318.15 K, 16000 kPa	928.7
318.15 K, 18100 kPa	930
318.15 K, 20000 kPa	931.3

CCCCCCCl [1-chlorohexane]
Conditions	mass density [kg/m3]
288.15 K, 100 kPa	882.7
288.15 K, 2000 kPa	884.4
288.15 K, 4100 kPa	886
288.15 K, 5900 kPa	887.5
288.15 K, 8100 kPa	889.2
288.15 K, 10100 kPa	890.7
288.15 K, 12200 kPa	892.3
288.15 K, 14200 kPa	893.8
288.15 K, 16200 kPa	895.2
288.15 K, 18200 kPa	896.7
288.15 K, 20200 kPa	898.3
298.15 K, 100 kPa	873.1
298.15 K, 2000 kPa	874.8
298.15 K, 4100 kPa	876.6
298.15 K, 6100 kPa	878.3
298.15 K, 8100 kPa	879.9
298.15 K, 10200 kPa	881.7
298.15 K, 12100 kPa	883.3
298.15 K, 14200 kPa	885
298.15 K, 16400 kPa	886.6
298.15 K, 18400 kPa	888.1
298.15 K, 20200 kPa	889.6
308.15 K, 100 kPa	864.3
308.15 K, 2000 kPa	866.1
308.15 K, 4100 kPa	868
308.15 K, 6100 kPa	869.7
308.15 K, 8100 kPa	871.5
308.15 K, 10200 kPa	873.3
308.15 K, 12100 kPa	875
308.15 K, 14200 kPa	876.7
308.15 K, 16200 kPa	878.3
308.15 K, 18300 kPa	879.9
308.15 K, 20200 kPa	881.5
318.15 K, 100 kPa	855.1
318.15 K, 2000 kPa	857
318.15 K, 4000 kPa	858.9
318.15 K, 6100 kPa	860.9
318.15 K, 8100 kPa	862.7
318.15 K, 10100 kPa	864.6
318.15 K, 11900 kPa	866.1
318.15 K, 14100 kPa	868.1
318.15 K, 16100 kPa	869.9
318.15 K, 18000 kPa	871.4
318.15 K, 20000 kPa	872.8

CCCCCl [1-chlorobutane]
mass density [kg/m3]
Conditions	288.15 K	298.15 K	308.15 K	318.15 K
100 kPa	891.8	880.6	870	859.1
2000 kPa	893.6	882.6	872.1	861.5
4000 kPa	–	–	–	863.8
4100 kPa	895.6	884.9	874.4	–
6100 kPa	897.5	886.8	876.5	866.3
8100 kPa	899.4	888.7	878.6	868.7
10100 kPa	901.3	890.9	880.8	870.9
12100 kPa	903	892.8	882.9	873.1
14100 kPa	904.9	–	–	875.1
14200 kPa	–	894.7	884.9	–
16200 kPa	–	896.5	886.8	877.2
16300 kPa	906.7	–	–	–
18300 kPa	–	898.5	888.8	–
18400 kPa	908.5	–	–	879.3
20200 kPa	910.3	–	890.6	881.2
20400 kPa	–	900.2	–	–
